Measured values taken from patent publication US8338565B2, “Macrocyclic compounds for inhibition of tumor necrosis factor alpha” (Ensemble Therapeutics Corporation, priority 2008, dated 2012).
Where two headings read alike, the source gives them in different places. Numbered stars: 1 amine (or outer) side, 2 acyl side, 3 side chain; on linkers, the order of the positions; unused ones are H or OH. Bridge positions count the residues as written; N and C are the ends. Square brackets hold non-standard residues; d marks the D form. Peptide text beside a SMILES is read from it. Tartaroyl(2R,3R-(OAc)2) = CC(=O)O[C@@H](C(=O)[*:1])[C@@H](OC(C)=O)C(=O)[*:2]; Phe(4-CF3) = N[C@@H](Cc1ccc(C(F)(F)F)cc1)C(=O)O; dPhe(3-CF3) = N[C@H](Cc1cccc(C(F)(F)F)c1)C(=O)O; Phe(4-COOH) = N[C@@H](Cc1ccc(C(=O)O)cc1)C(=O)O; Phe(2,4-Cl2) = N[C@@H](Cc1ccc(Cl)cc1Cl)C(=O)O; Bip = N[C@@H](Cc1ccc(-c2ccccc2)cc1)C(=O)O; dPhe(4-NH2) = Nc1ccc(C[C@@H](N)C(=O)O)cc1; Phe(4-CN) = N#Cc1ccc(C[C@H](N)C(=O)O)cc1; dPhe(2-CN) = N#Cc1ccccc1C[C@@H](N)C(=O)O; dPhe(4-Br) = N[C@H](Cc1ccc(Br)cc1)C(=O)O; Phe(4-NH2) = Nc1ccc(C[C@H](N)C(=O)O)cc1; Phe(4-Me) = Cc1ccc(C[C@H](N)C(=O)O)cc1; d(hPhe) = N[C@H](CCc1ccccc1)C(=O)O; hPhe = N[C@@H](CCc1ccccc1)C(=O)O; d3Pal = N[C@H](Cc1cccnc1)C(=O)O; 2Thi = N[C@@H](Cc1cccs1)C(=O)O; d2Thi = N[C@H](Cc1cccs1)C(=O)O; Suc = O=C(CCC(=O)[*:2])[*:1]; Dap = NC[C@H](N)C(=O)O; GABA = NCCCC(=O)O; βAla = NCCC(=O)O

Target: T1, TNFα / TNFα receptor (TNFα R1/Fc) (Homo sapiens, UniProt P01375)
T1 construct: purchased R&D Systems
T1 sequence (P01375 77-233 limits assumed, species assumed): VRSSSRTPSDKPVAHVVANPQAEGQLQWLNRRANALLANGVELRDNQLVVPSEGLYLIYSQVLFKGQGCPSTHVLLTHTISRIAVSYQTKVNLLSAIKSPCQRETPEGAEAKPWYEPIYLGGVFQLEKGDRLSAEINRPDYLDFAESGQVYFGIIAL
Assay: Inhibition of binding of TNFα to the TNFα receptor (plate ELISA competition)
Conditions: Table 2
How it was run: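 Plates were coated with TNFα at 15 nM. Test compound and 8.33 nM receptor-Fc (PBST, 2% DMSO) were first mixed in solution for 30 min at room temperature, then transferred to the plates for another 30 min. Competition was read by absorbance at 450 nm after HRP anti-human IgG Fc detection with TMB.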

[1] = read-out: Activity (IC50, inhibition of TNFα binding to TNFα R1/Fc)

Row | Structure (SMILES) | IC50 [1] [µM] | IC50 (Activity (IC50, inhibition of TNFα binding to TNFα R1/Fc)) [µM]
1 | Cc1ccc(C[C@@H]2NC(=O)[C@@H](Cc3cccs3)NC(=O)CCC(=O)Nc3ccc(cc3)C[C@@H](C(=O)O)NC(=O)[C@@H](Cc3ccccc3)NC2=O)cc1 [Compound 103] ([d2Thi][Phe(4-Me)][dF][Phe(4-NH2)]-OH; linker N-4 via Suc) | > 100 | –
2 | O=C1COc2ccc(cc2)C[C@@H](C(=O)O)NC(=O)[C@H](Cc2ccccc2)NC(=O)[C@H](Cc2ccc(-c3ccc(Cl)cc3)cc2)NC(=O)[C@H](Cc2cccs2)N1 [Compound 365] | 30 to 100 | –
3 | N#Cc1ccc(C[C@@H]2NC(=O)[C@@H](Cc3cccs3)NC(=O)CCC(=O)Nc3ccc(cc3)C[C@@H](C(=O)O)NC(=O)[C@@H](Cc3ccccc3)NC2=O)cc1 [Compound 94] ([d2Thi][Phe(4-CN)][dF][Phe(4-NH2)]-OH; linker N-4 via Suc) | > 100 | –
4 | CC(=O)O[C@H]1C(=O)Nc2ccc(cc2)C[C@@H](C(=O)N[C@@H](Cc2ccccc2)C(=O)O)NC(=O)[C@H](CCc2ccccc2)NC(=O)[C@@H](Cc2ccc(Br)cc2)NC(=O)[C@H](Cc2cccs2)NC(=O)[C@@H]1OC(C)=O [Compound 416] ([2Thi][dPhe(4-Br)][hPhe][Phe(4-NH2)]F-OH; linker N-4 via Tartaroyl(2R,3R-(OAc)2)) | > 100 | –
5 | O=C1COc2ccc(cc2)C[C@@H](C(=O)O)NC(=O)[C@@H](CCc2ccccc2)NC(=O)[C@H](Cc2ccc(Br)cc2)NC(=O)[C@@H](Cc2cccs2)N1 [Compound 539] | > 100 | –
6 | O=C1COc2ccc(cc2)C[C@@H](C(=O)N[C@H](Cc2ccccc2)C(=O)O)NC(=O)[C@H](Cc2ccccc2)NC(=O)[C@@H](Cc2ccc(-c3ccccc3)cc2)NC(=O)[C@H](Cc2cccs2)N1 [Compound 227] | < 10 | –
7 | O=C1N[C@H](Cc2ccccc2)C(=O)N[C@H](C(=O)O)Cc2ccc(cc2)NC(=O)[C@H](O)[C@@H](O)C(=O)N[C@H](Cc2cccs2)C(=O)NC1c1ccc(Br)cc1 (some centres unmarked) [Compound 294] | 30 to 100 | –
8 | O=C1COc2ccc(cc2)C[C@@H](C(=O)NCS(=O)(=O)O)NC(=O)[C@H](Cc2ccc(O)cc2)NC(=O)[C@@H](Cc2ccc(-c3ccccc3)cc2)NC(=O)[C@H](Cc2cccs2)N1 [Compound 566] | – | 10 to 30
9 | O=C1COc2ccc(cc2)C[C@@H](C(=O)N[C@H](CCc2ccccc2)C(=O)O)NC(=O)[C@H](Cc2c[nH]c3ccccc23)NC(=O)[C@@H](Cc2ccc(-c3ccccc3)cc2)NC(=O)[C@H](Cc2c[nH]c3ccccc23)N1 [Compound 744] | < 10 | –
10 | O=C1COc2ccc(cc2)C[C@@H](C(=O)O)NC(=O)[C@H](Cc2ccccc2C(F)(F)F)NC(=O)[C@@H](Cc2ccc(-c3ccccc3)cc2)NC(=O)[C@H](Cc2ccncc2)N1 [Compound 649] | < 10 | –
11 | O=C1CCC(=O)N[C@H](CCc2ccccc2)C(=O)N[C@@H](Cc2ccc(-c3cc(F)cc(F)c3)cc2)C(=O)N[C@H](Cc2ccccc2)C(=O)N[C@H](C(=O)O)Cc2ccc(cc2)N1 [Compound 182] | 30 to 100 | –
12 | O=C1CCC(=O)N[C@H](Cc2cccs2)C(=O)N[C@@H](Cc2ccc(-c3ccccc3)cc2)C(=O)N[C@H](Cc2ccccc2)C(=O)N[C@H](C(=O)N[C@@H](CO)C(=O)O)Cc2ccc(cc2)N1 [Compound 22] ([d2Thi][Bip][dF][Phe(4-NH2)]S-OH; linker N-4 via Suc) | 30 to 100 | –
13 | O=C(O)[C@@H]1Cc2ccc(cc2)NC(=O)[C@H](O)[C@@H](O)C(=O)N[C@H](Cc2ccc(F)c(F)c2)C(=O)N[C@@H](Cc2ccc(-c3ccccc3)cc2)C(=O)N[C@H](Cc2ccccc2)C(=O)N1 [Compound 262] | 10 to 30 | –
14 | O=C(O)CCCNC(=O)[C@@H]1Cc2ccc(cc2)C(=O)NCCC(=O)N[C@H](CCc2ccccc2)C(=O)N[C@@H](Cc2ccc(-c3ccccc3)cc2)C(=O)N[C@H](Cc2ccccc2)C(=O)N1 [Compound 421] ([βAla][d(hPhe)][Bip][dF][Phe(4-COOH)][GABA]-OH; lactam N-5) | < 10 | –
15 | O=C1CCC(=O)N[C@H](Cc2cccs2)C(=O)N[C@@H](Cc2ccc(-c3ccccc3)cc2)C(=O)N[C@H](Cc2cccc(C(F)(F)F)c2)C(=O)N[C@H](C(=O)O)Cc2ccc(cc2)N1 [Compound 78] ([d2Thi][Bip][dPhe(3-CF3)][Phe(4-NH2)]-OH; linker N-4 via Suc) | > 100 | –
16 | COc1ccc(C[C@@H]2NC(=O)[C@H](Cc3cccs3)NC(=O)COc3ccc(cc3)C[C@@H](C(=O)O)NC(=O)[C@H](Cc3ccccc3)NC2=O)cc1OC [Compound 406] | > 100 | –
17 | O=C1CCC(=O)NN(Cc2ccccc2)C(=O)N[C@@H](Cc2ccc(-c3ccccc3)cc2)C(=O)N[C@H](Cc2ccccc2)C(=O)N[C@H](C(=O)O)Cc2ccc(cc2)N1 [Compound 119] | 30 to 100 | –
18 | O=C(O)[C@H](Cc1ccccc1)NC(=O)[C@H]1Cc2ccc(cc2)NC(=O)[C@H](O)[C@@H](O)C(=O)N[C@@H](Cc2cccs2)C(=O)N[C@H](Cc2ccc(Br)cc2)C(=O)N[C@@H](Cc2ccccc2)C(=O)N1 [Compound 438] | < 10 | –
19 | O=C(O)[C@@H]1Cc2ccc(cc2)NC(=O)[C@H](O)[C@@H](O)C(=O)N[C@@H](Cc2cccs2)C(=O)N[C@@H](Cc2ccc(-c3ccccc3)cc2)C(=O)N[C@H](Cc2ccccc2)C(=O)N1 [Compound 270] | > 100 | –

Row | Structure (SMILES) | IC50 [1] [µM] | IC50 (Activity (IC50, inhibition of TNFα binding to TNFα R1/Fc)) [µM]
20 | O=C1COc2ccc(cc2)C[C@@H](C(=O)O)NC(=O)[C@H](CCc2ccccc2)NC(=O)[C@@H](Cc2ccc(-c3ccc(O)cc3)cc2)NC(=O)[C@H](Cc2cccs2)N1 [Compound 656] | < 10 | –
21 | O=C(O)CCC(=O)N[C@H]1CNC(=O)c2ccc(cc2)C[C@@H](C(=O)O)NC(=O)[C@@H](Cc2ccccc2)NC(=O)[C@H](Cc2ccc(-c3ccccc3)cc2)NC(=O)[C@@H](CCc2ccccc2)NC1=O [Compound 267] (Suc-[Dap][d(hPhe)][Bip][dF][Phe(4-COOH)]-OH; lactam 1-5) | > 100 | –
22 | O=C1COc2ccc(cc2)C[C@@H](C(=O)O)NC(=O)[C@H](Cc2ccc(Cl)cc2Cl)NC(=O)[C@@H](Cc2ccc(-c3ccccc3)cc2)NC(=O)[C@H](Cc2ccncc2)N1 [Compound 650] | < 10 | –
23 | O=C1COc2ccc(cc2)C[C@@H](C(=O)O)NC(=O)[C@H](CCc2ccccc2)NC(=O)[C@@H](Cc2ccc(-c3ccccc3)cc2)NC(=O)[C@H](Cc2ccc(Cl)cc2Cl)N1 [Compound 697] | < 10 | –
24 | N#Cc1ccccc1C[C@H]1NC(=O)[C@H](Cc2ccc(C(F)(F)F)cc2)NC(=O)[C@@H](CCc2ccccc2)NC(=O)CCC(=O)Nc2ccc(cc2)C[C@@H](C(=O)O)NC1=O [Compound 225] ([d(hPhe)][Phe(4-CF3)][dPhe(2-CN)][Phe(4-NH2)]-OH; linker N-4 via Suc) | > 100 | –
25 | O=C1CCC(=O)N[C@H](CCc2ccccc2)C(=O)N[C@@H](Cc2ccc(Cl)cc2Cl)C(=O)N[C@H](Cc2ccccc2)C(=O)N[C@@H](C(=O)N[C@@H](Cc2ccccc2)C(=O)O)Cc2ccc(cc2)N1 [Compound 441] ([d(hPhe)][Phe(2,4-Cl2)][dF][dPhe(4-NH2)]F-OH; linker N-4 via Suc) | 10 to 30 | –
26 | O=C(O)CCCNC(=O)[C@@H]1Cc2ccc(cc2)OCC(=O)N[C@@H](Cc2c[nH]c3ccccc23)C(=O)N[C@H](Cc2ccc(-c3ccccc3)cc2)C(=O)N[C@@H](CCc2ccccc2)C(=O)N1 [Compound 720] | < 10 | –
27 | O=C1COc2ccc(cc2)C[C@@H](C(=O)N[C@H](Cc2ccccc2)C(=O)O)NC(=O)[C@H](Cc2ccc(O)cc2)NC(=O)[C@@H](Cc2ccc(-c3ccccc3)cc2)NC(=O)[C@H](Cc2cccs2)N1 [Compound 565] | < 10 | –
28 | O=C1COc2ccc(cc2)C[C@@H](C(=O)O)NC(=O)[C@@H](CCc2ccccc2)NC(=O)[C@H](Cc2ccc(-c3ccccc3)cc2)NC(=O)[C@@H](Cc2ccncc2)N1 [Compound 523] | > 100 | –
29 | O=C1COc2ccc(cc2)C[C@@H](C(=O)O)NC(=O)[C@H](Cc2c[nH]c3ccccc23)NC(=O)[C@@H](Cc2ccc(-c3ccccc3)cc2)NC(=O)[C@H](Cc2cccs2)N1 [Compound 640] | < 10 | –
30 | O=C1COc2ccc(cc2)C[C@@H](C(=O)NCC2(C(=O)O)CC2)NC(=O)[C@@H](CCc2ccccc2)NC(=O)[C@H](Cc2ccc(-c3ccccc3)cc2)NC(=O)[C@@H](Cc2cccs2)N1 [Compound 404] | < 10 | –
31 | C[C@H]1NC(=O)CCC(=O)Nc2ccc(cc2)C[C@@H](C(=O)O)NC(=O)[C@@H](Cc2ccccc2)NC(=O)[C@H](Cc2ccc(-c3ccccc3)cc2)NC1=O [Compound 46] ([dA][Bip][dF][Phe(4-NH2)]-OH; linker N-4 via Suc) | > 100 | –
32 | O=C1COc2ccc(cc2)C[C@@H](C(=O)O)NC(=O)[C@@H](CCc2ccccc2)NC(=O)C(c2ccc(Br)cc2)NC(=O)[C@@H](Cc2cccs2)N1 (some centres unmarked) [Compound 525] | < 10 | –
33 | O=C(O)CCCNC(=O)[C@H]1Cc2ccc(cc2)OCC(=O)N[C@@H](Cc2ccncc2)C(=O)N[C@H](Cc2ccc(-c3ccccc3)cc2)C(=O)N[C@@H](Cc2c[nH]c3ccccc23)C(=O)N1 [Compound 717] | 10 to 30 | –
34 | Cc1ccc(C[C@H]2NC(=O)[C@H](O)[C@@H](O)C(=O)Nc3ccc(cc3)C[C@@H](C(=O)O)NC(=O)[C@@H](Cc3ccccc3)NC(=O)[C@H](Cc3ccc(-c4ccccc4)cc3)NC2=O)cc1 [Compound 264] | > 100 | –
35 | O=C1CCCNC(=O)c2ccc(cc2)C[C@@H](C(=O)O)NC(=O)[C@@H](Cc2ccccc2)NC(=O)[C@H](Cc2ccc(-c3ccccc3)cc2)NC(=O)[C@@H](CCc2ccccc2)N1 [Compound 249] ([GABA][d(hPhe)][Bip][dF][Phe(4-COOH)]-OH; lactam N-5) | > 100 | –
36 | CC(=O)NCCCC[C@@H]1NC(=O)COc2ccc(cc2)C[C@@H](C(=O)O)NC(=O)[C@H](Cc2ccccc2)NC(=O)[C@H](Cc2ccc(-c3ccccc3)cc2)NC1=O [Compound 490] | > 100 | –
37 | O=C1CCC(=O)N[C@H](Cc2cccnc2)C(=O)N[C@@H](Cc2ccc(-c3ccccc3)cc2)C(=O)N[C@H](Cc2ccccc2)C(=O)N[C@H](C(=O)O)Cc2ccc(cc2)N1 [Compound 126] ([d3Pal][Bip][dF][Phe(4-NH2)]-OH; linker N-4 via Suc) | > 100 | –
38 | O=C(O)[C@@H]1Cc2ccc(cc2)NC(=O)[C@H](O)[C@@H](O)C(=O)N[C@H](Cc2ccc(C(F)(F)F)cc2)C(=O)N[C@@H](Cc2ccc(-c3ccccc3)cc2)C(=O)N[C@H](Cc2ccccc2)C(=O)N1 [Compound 263] | > 100 | –
